This is an account of results in ChEMBL document CHEMBL1201862, “PubChem BioAssay data set” (2004).

The structures appear in SMILES notation. Active and inactive are the calls of the source.

Data set [1] relates to Escherichia coli. Description: microbe, parasite or virus in culture.
A short description of data set [2]: inhibitors of intracellular T. cruzi replication, confirmation, NIH3T3 host cells, beta-gal luminescence (AID 2044).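 Also: intracellular parasites grown in NIH/3T3 mouse fibroblasts as host cells; luminescent beta-galactosidase reporter signal from transgenic T. cruzi replicating inside host cells; inhibitors lower the luminescence signal.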 Type of data set: functional, cell-based.
A short description of data set [3]: cytotoxicity toward NIH3T3 fibroblasts, dose response, counter-screen, cell-based, ATP luminescence, mouse fibroblasts (AID 2010).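 Also: cells exposed to compound for about 90 hours before reading.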 It is filed as functional. Background: Counterscreens check selectivity or assay interference.
The nature of data set [4]: cells. Type of data set: functional.
Data set [5] deals with Vero. Description: cells. It is filed as functional, cell-based. As to conditions: Chlorocebus sabaeus.
The target of data set [6] is T1, Short transient receptor potential channel 4 (Mus musculus, UniProt Q9QUQ5).
T1 sequence (Q9QUQ5 whole entry): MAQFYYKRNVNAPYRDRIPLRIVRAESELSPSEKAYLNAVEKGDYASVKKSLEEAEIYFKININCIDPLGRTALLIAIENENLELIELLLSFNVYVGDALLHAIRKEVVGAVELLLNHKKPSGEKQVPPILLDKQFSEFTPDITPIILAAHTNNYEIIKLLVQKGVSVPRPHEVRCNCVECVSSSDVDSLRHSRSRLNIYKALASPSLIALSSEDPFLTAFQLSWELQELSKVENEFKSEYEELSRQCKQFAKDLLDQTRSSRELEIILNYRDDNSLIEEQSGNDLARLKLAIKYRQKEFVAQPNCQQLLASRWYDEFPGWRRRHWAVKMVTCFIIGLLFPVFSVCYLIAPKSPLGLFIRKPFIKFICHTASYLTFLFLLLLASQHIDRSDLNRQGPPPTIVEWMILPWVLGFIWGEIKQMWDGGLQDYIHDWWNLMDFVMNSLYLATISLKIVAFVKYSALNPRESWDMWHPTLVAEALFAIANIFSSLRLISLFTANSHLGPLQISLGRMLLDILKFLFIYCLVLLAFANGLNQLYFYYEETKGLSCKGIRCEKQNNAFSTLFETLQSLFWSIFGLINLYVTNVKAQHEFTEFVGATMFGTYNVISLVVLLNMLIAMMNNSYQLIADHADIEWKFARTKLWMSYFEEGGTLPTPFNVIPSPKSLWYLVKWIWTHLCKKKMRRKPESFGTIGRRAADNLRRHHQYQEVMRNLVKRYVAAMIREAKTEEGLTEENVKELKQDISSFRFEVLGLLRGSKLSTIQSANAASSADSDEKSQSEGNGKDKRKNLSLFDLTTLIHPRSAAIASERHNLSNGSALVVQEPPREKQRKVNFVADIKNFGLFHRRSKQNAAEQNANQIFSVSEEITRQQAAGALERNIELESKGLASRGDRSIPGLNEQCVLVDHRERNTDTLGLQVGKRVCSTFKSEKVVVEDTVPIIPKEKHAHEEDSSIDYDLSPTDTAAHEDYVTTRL
Description: mouse TRPC4 channel activators, dose response, cell-based, HEK293 TRPC4/mu-opioid, Fluo-4 calcium (AID 434937). Type of data set: functional.

Data set [7] addresses Delta-type opioid receptor (Homo sapiens, UniProt P41143). Description: Counterscreen for agonists of heterodimerization of the mu 1 (OPRM1) and delta 1 (OPRD1) opioid receptors: Luminescence-based cell-based high throughput dose response assay to identify agonists of OPRD1 homodimerization. [Related pubchem assays (depositor defined):AID504326, AID504355, AID504692, AID504904, AID504905]. It is filed as functional.

The target in data set [8] is Mu-type opioid receptor (Homo sapiens, UniProt P35372). Put plainly: Counterscreen for agonists of heterodimerization of the mu 1 (OPRM1) and delta 1 (OPRD1) opioid receptors: Luminescence-based cell-based high throughput dose response assay to identify agonists of OPRM1 homodimerization. It is filed as functional.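 Also: U2OS cells expressing OPRM1 and beta-arrestin as split beta-galactosidase partners.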
Data set [9] concerns the target 5-hydroxytryptamine receptor 5A (Homo sapiens, UniProt P47898). Put plainly: Counterscreen for agonists of OPRM1-OPRD1 heterodimerization: luminescence-based cell-based high throughput dose response assay to identify agonists of 5-hydroxytryptamine (serotonin) 5A receptor (HTR5A). [Related pubchem assays (depositor defined):AID504326, AID504355, AID504692, AID504904, AID504905]. Type of data set: functional.

Data set [10] deals with T2, Replicative DNA helicase DnaB (Mycobacterium tuberculosis, UniProt P9WMR3).
T2 sequence (P9WMR3 whole entry): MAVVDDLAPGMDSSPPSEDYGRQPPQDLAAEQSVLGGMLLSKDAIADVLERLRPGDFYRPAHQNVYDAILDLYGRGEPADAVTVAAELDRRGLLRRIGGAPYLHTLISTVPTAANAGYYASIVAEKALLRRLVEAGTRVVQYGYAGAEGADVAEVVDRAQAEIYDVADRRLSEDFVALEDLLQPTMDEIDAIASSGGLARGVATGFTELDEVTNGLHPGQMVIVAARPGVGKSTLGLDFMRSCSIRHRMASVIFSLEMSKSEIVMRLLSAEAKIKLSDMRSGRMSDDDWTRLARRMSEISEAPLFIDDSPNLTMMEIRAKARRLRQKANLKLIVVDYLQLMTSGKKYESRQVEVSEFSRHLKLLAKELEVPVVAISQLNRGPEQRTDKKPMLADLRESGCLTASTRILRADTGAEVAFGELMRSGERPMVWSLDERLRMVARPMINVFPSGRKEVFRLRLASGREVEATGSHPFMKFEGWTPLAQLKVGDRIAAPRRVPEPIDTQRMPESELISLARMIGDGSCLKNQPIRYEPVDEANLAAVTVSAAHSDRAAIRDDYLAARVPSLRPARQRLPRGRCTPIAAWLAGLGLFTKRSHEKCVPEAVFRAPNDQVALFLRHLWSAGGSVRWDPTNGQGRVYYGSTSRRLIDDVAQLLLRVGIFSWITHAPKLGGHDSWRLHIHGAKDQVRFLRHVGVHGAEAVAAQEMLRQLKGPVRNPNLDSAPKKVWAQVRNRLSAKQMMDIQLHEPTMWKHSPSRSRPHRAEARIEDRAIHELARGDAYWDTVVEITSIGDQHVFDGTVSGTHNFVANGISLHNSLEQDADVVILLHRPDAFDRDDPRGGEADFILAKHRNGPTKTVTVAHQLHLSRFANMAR
Description: DnaB intein splicing inhibitors, dose response, biochemical, cell-free fluorescence (AID 449749). It is filed as functional.

Data set [11] addresses T3, Protein RecA (Mycobacterium tuberculosis, UniProt P9WHJ3).
T3 sequence (P9WHJ3 whole entry): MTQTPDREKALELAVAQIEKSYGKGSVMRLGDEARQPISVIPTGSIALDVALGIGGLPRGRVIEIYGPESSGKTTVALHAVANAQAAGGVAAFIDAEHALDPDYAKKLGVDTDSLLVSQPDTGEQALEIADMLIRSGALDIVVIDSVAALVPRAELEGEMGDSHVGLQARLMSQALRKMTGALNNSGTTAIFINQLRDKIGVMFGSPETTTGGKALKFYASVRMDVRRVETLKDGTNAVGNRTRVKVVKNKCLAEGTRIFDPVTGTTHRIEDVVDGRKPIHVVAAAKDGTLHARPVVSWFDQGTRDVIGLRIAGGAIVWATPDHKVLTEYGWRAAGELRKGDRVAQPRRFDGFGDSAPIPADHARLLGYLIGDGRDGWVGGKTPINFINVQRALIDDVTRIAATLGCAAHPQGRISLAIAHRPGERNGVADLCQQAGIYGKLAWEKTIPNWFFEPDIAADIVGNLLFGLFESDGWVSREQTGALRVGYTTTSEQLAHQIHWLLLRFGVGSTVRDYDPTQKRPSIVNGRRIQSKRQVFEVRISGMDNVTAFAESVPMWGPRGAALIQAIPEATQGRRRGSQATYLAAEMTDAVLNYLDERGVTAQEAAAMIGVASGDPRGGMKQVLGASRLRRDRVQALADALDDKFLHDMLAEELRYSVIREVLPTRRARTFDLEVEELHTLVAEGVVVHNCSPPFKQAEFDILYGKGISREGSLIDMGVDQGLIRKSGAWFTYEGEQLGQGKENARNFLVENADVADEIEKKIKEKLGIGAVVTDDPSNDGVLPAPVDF
Put plainly: Fluorescence Cell-Free Homogeneous Dose Retest to Identify Inhibitors of RecA-Intein Splicing Activity. [Related pubchem assays (depositor defined):AID2097, AID2223, AID489010, AID492950]. It is filed as functional.

The target of data set [12] is T4, Fatty acid synthase (Homo sapiens, UniProt P49327). Put plainly: FAS thioesterase domain inhibitors, dose response, biochemical, endpoint fluorescence intensity, uHTS hits (AID 624327).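 Also: fluorescence from hydrolysis of an O-methyl fluorescein acyl ester substrate by the enzyme.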 Type of data set: functional.
In data set [13] the target is T4, Fatty acid synthase. Put plainly: FAS thioesterase domain inhibitors, dose response, biochemical, kinetic fluorescence intensity (AID 624326).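 Also: rate of fluorescence rise from hydrolysis of a fluorogenic O-methyl fluorescein ester substrate.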 Type of data set: functional.
The test system of data set [14] is HEK293. Put plainly: cells. Conditions: Homo sapiens.
The test system of data set [15] is HEK293. Put plainly: cells. As to conditions: Homo sapiens. The source holds these as a separate data set.
Data set [16] is described as follows: HEp-2 cell cytotoxicity, dose response, cytotoxicity control for RSV inhibitor project, HTS (AID 2410). It is filed as functional. Conditions: human respiratory syncytial virus.
The subject of data set [17] is Vero. Description: host cell cytotoxicity of antiviral hits, dose response, cytotoxicity control for West Nile virus antiviral project, secondary assay (AID 1650). Type of data set: functional. As to conditions: Chlorocebus sabaeus.
In data set [18] the test system is Vero. Description: cells. It is filed as functional. As to conditions: Chlorocebus sabaeus.
The target in data set [19] is Cytochrome P450 2C19 (Homo sapiens, UniProt P33261). Put plainly: Cytochrome panel assay with activity outcomes. Panel member name: p450-cyp2c19 Compounds with AC50 equal or less than 10 uM are considered active. Type of data set: functional.
Data set [20] concerns the target T5, Cytochrome P450 1A2 (Homo sapiens, UniProt P05177).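 Also: PubChem cytochrome P450 panel assay, CYP1A2 panel member.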
T5 sequence (P05177 whole entry): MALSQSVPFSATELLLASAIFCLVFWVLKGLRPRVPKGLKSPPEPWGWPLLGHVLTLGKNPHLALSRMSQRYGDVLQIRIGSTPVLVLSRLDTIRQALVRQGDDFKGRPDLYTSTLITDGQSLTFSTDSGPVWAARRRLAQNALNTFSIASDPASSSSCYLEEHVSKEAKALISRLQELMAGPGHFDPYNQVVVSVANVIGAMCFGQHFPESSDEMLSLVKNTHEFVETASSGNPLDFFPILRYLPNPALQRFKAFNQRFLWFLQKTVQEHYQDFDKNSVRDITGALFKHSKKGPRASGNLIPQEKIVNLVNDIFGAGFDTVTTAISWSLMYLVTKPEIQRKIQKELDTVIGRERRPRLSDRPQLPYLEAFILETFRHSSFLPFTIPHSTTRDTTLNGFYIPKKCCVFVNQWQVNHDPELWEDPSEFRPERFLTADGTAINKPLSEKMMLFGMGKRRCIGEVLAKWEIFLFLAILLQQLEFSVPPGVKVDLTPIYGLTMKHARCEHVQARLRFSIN

Data set [21] has as its target Cytochrome P450 2C9 (Homo sapiens, UniProt P11712).
Data set [22] relates to Escherichia coli. Put plainly: microbe, parasite or virus in culture. This is another data set of the same source.
Data set [23] deals with T1, Short transient receptor potential channel 4. Put plainly: SAR Analysis for the identification of selective inhibits of the transient receptor potential cation channel C4 (TRPC4): Automated Electrophysiology_2. [Related pubchem assays (depositor defined):AID2256]. Type of data set: functional.

Chain of Cytochrome P450 2C19 (P33261 whole entry): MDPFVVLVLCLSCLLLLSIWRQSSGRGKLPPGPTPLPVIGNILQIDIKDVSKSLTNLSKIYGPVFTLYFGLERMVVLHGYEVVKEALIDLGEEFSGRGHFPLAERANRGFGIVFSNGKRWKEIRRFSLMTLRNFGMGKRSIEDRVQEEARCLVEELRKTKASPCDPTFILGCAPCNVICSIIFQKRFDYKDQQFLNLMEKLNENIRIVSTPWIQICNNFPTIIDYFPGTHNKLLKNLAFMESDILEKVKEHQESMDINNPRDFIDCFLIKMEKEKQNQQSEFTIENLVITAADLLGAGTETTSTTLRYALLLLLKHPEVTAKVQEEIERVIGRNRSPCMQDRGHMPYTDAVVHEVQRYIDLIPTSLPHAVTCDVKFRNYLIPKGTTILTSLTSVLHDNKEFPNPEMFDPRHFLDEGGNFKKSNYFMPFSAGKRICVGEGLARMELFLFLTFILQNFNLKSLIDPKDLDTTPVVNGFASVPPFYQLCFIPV
Chain of Delta-type opioid receptor (P41143 whole entry): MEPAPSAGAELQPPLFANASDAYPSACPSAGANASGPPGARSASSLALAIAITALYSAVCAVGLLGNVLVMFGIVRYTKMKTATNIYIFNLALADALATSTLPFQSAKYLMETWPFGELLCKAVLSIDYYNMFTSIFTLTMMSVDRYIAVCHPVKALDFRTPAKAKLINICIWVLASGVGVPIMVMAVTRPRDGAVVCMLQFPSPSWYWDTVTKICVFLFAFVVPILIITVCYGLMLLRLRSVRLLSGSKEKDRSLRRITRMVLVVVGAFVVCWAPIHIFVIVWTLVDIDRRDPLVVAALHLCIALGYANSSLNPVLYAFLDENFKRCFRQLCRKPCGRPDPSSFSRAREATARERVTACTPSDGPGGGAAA
T4 sequence (P49327 whole entry, the tested form may be a part): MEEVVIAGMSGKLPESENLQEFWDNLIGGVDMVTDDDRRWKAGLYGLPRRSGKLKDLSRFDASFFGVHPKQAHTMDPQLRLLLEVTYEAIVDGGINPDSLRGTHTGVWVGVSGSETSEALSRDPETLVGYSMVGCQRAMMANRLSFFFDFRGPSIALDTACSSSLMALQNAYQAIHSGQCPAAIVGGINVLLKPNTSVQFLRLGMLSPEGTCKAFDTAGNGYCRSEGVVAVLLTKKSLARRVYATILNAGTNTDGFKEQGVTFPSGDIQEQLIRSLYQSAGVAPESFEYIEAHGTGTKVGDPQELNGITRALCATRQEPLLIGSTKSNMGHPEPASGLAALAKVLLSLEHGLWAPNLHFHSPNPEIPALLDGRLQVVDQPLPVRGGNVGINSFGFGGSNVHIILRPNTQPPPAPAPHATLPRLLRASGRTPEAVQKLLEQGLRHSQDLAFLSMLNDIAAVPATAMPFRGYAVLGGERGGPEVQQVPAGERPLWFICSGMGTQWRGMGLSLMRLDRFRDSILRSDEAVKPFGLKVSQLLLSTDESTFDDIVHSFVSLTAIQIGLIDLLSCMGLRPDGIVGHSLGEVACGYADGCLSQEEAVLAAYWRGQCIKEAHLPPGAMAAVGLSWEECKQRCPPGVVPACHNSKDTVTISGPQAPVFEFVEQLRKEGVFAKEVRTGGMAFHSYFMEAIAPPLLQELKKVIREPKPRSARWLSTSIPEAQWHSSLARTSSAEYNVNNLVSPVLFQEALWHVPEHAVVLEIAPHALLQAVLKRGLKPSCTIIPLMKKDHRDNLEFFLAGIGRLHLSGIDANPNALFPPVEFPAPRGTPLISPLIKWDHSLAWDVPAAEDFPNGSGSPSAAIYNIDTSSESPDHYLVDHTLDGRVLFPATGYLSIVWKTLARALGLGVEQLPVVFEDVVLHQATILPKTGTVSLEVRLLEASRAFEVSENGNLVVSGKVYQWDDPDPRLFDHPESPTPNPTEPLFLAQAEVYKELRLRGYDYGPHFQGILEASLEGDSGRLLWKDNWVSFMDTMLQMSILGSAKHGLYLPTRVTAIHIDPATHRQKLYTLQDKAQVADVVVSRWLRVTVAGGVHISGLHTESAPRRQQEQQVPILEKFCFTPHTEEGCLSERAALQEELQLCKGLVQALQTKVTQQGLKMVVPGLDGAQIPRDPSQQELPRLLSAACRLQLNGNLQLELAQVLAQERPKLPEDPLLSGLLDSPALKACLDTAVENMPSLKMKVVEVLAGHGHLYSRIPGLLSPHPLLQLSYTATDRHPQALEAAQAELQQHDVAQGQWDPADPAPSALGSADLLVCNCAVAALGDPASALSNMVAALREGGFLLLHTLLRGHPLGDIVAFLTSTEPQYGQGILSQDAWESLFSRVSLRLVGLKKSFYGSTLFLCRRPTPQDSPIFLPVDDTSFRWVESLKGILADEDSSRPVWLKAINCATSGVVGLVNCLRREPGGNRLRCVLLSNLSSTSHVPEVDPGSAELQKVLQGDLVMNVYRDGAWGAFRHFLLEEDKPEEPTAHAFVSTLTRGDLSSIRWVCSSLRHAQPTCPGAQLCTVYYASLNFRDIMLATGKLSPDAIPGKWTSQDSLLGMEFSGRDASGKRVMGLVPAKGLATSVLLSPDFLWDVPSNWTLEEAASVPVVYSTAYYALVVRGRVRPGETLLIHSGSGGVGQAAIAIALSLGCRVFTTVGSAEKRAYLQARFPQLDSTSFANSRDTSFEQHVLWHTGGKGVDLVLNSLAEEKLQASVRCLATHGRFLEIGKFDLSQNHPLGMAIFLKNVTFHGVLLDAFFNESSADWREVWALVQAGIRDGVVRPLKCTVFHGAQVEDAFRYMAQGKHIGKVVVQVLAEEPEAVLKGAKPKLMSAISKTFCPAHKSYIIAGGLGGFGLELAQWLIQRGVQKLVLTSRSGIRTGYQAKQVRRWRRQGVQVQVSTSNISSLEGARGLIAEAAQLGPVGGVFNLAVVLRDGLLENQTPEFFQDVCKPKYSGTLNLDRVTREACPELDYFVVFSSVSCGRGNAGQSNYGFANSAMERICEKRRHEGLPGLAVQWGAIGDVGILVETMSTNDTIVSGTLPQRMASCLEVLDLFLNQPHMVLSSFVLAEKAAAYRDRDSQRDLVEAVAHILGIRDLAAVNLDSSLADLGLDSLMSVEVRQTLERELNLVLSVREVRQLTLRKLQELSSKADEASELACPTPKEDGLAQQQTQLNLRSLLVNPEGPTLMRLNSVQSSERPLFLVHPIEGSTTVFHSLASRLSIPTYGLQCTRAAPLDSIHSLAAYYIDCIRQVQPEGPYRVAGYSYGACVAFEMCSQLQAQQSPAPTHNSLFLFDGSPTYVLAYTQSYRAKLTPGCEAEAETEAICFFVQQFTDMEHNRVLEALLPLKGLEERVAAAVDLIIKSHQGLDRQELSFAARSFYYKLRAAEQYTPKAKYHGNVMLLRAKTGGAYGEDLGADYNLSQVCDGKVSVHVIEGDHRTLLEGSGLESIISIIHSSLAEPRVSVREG
Chain of Mu-type opioid receptor (P35372 whole entry): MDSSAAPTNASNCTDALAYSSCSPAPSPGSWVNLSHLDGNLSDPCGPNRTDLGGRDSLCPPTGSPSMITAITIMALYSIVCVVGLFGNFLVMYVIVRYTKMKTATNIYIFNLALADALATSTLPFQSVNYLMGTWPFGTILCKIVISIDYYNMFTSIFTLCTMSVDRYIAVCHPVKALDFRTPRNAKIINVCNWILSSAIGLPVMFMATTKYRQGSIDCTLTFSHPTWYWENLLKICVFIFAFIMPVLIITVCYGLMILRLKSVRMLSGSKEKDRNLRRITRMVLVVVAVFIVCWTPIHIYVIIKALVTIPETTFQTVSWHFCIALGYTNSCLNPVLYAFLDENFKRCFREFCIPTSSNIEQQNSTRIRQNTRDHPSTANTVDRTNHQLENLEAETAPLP
Chain of 5-hydroxytryptamine receptor 5A (P47898 whole entry): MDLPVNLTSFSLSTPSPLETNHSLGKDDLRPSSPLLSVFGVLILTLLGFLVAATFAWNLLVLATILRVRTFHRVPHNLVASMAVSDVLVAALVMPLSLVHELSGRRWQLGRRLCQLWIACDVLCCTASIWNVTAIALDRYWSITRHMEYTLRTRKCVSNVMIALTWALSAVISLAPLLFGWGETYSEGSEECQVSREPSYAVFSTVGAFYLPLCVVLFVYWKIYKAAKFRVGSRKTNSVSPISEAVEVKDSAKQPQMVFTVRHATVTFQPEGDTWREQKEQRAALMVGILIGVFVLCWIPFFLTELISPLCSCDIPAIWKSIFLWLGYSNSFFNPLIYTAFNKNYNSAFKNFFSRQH
Chain of Cytochrome P450 2C9 (P11712 whole entry): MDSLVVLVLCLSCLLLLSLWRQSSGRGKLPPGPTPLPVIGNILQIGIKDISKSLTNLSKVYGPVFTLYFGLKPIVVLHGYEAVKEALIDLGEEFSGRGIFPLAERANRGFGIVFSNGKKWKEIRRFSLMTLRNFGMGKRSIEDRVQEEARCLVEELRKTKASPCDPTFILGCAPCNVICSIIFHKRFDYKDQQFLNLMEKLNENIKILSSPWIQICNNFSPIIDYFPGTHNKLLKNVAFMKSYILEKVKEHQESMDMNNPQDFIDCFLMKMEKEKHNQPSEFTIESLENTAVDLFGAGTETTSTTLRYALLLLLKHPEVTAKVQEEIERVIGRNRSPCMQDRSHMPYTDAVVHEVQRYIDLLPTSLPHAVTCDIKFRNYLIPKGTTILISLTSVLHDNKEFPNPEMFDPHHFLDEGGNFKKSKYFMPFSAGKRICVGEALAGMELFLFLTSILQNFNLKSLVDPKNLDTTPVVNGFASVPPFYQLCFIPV

As usually defined, the AC50 is the midpoint of the concentration-response curve, whichever way the signal moves. Consider `CCCCOCC1CN(c2ccccc2)C(=O)CS1` (stereo unspecified), for which, in [1], the AC50 is 20.9 µM (active).
By EC50 is commonly meant the concentration at which the effect is half-maximal. As a reminder, the IC50 is the midpoint of a concentration-inhibition curve. For `O=C1c2cccc3cc([N+](=O)[O-])cc(c23)C(=O)N1c1ccccc1O`, the figures for the concentration for a half-maximal effect (EC50) in data set [2] and in data set [3] were 0.354 µM (active) and 9.05 µM (active), respectively. The IC50 in data set [4] was > 50 µM (active); in [5], 2.35 µM (active).
As for `CCOC(=O)C1(CC2CCCCO2)CCN(Cc2c(C)cc(C)cc2-n2cccn2)CC1` (stereo unspecified), the EC50 in data set [6] was 0.0293 µM (active); in data set [7], > 92.5 µM (inactive); in [8] it was 15.5 µM (inactive); in [9], > 92.5 µM (inactive).
For the molecule `CCc1cccc(CC)c1NC(=O)/C(C#N)=C/c1ccccc1C(F)(F)F`, the concentration at half-maximal activity (AC50) in data set [10] was 4.45 µM (active). Further, the EC50 in data set [11] is 11.7 µM (active); in [14], > 59.6 µM (inactive); in [15] it was > 59.6 µM (inactive). Besides, the IC50 in data set [12] is 7.72 µM (active); in data set [13], 4.74 µM (active).
As for `COc1ccc(-c2csc(N(CCCN(C)C)C(=O)c3cccs3)n2)cc1`, the EC50 in data set [7], in data set [8] and in [9] was > 92.5 µM (inactive) in each case.
As a reminder, the CC50 is the concentration giving 50% cytotoxicity. As to `CC1(C)COC(/C=C/c2cccc([N+](=O)[O-])c2)=N1`, the CC50 in [16] was 9.78 µM (active); in data set [17], 12.6 µM (active); in data set [18] it was 15.1 µM (active). In [5], the IC50 was 21.5 µM (active).
Take `CS(=O)(=O)N1CCC2(CC1)CN(c1ccc(-c3ccccc3)cc1)C2`: the AC50 result in data set [19], in [20] and in data set [21] was “inconclusive” in each case.
On to `COc1ccc(C(=O)C2(C)N(O)C(C)C(c3cccs3)=[N+]2[O-])cc1` (stereo unspecified), for which the AC50 in data set [22] is > 380 µM (inactive).
As to `COc1cc2nc(N3CCN(C(=O)[C@H]4COc5ccccc5O4)CC3)nc(N)c2cc1OC.CS(=O)(=O)O`, the AC50 result in data set [19] and in data set [20] was “inactive” each time.
Regarding `COc1ccccc1N1CCN(c2cc(C)c3ccccc3n2)CC1`, the IC50 in data set [23] is 9.89 µM (active).
Turning to `O=C(Nc1ccccc1Cl)c1ccccc1CC(O)(c1ccccc1)c1ccccc1`, the EC50 in data set [14] and in data set [15] was > 59.7 µM (inactive) in each case.
